Assay [1] has as its target T1, C. albicans GGPTase (Candida albicans, UniProt Q8J224+Q9Y764).
T1 sequence (Q9Y764 1-398): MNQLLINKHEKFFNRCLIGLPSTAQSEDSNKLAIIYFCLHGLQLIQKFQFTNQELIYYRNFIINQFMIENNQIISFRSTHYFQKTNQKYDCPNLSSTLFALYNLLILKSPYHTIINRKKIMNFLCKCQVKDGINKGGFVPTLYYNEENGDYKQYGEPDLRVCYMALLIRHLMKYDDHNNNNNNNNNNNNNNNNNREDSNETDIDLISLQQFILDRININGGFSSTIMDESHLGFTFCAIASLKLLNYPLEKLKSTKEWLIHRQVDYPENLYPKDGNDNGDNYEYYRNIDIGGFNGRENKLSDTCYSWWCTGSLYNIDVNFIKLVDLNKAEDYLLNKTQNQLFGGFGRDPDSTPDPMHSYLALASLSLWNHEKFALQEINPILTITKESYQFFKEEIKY
T1 sequence (Q8J224 1-306): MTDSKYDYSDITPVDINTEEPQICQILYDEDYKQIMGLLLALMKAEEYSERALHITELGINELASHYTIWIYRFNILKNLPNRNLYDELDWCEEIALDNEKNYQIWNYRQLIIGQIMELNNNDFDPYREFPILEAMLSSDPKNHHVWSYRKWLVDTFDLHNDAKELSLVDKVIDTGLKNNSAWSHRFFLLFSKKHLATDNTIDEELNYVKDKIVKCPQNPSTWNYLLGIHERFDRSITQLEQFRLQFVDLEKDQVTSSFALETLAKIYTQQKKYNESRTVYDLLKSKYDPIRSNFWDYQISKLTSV
Description: biochemical. How it is done: Plate test compounds (10 μL per well) at predetermined concentration in 50% DMSO. For background control (blank) and reaction control (negative), add 10 μL of 200 μM GGPP and 10 μL 50% DMSO, respectively. Prepare assay buffer: 50 mM Tris, pH7.5, 20 mM KCL, 5 mM MgCl2, 5 μM ZnCl2, 0.5 mM Zw(3-14), 2 mM DTT and 0.1 mg/mL BSA.
Add 20 μL of C. albicans GGPTase and ^3H-GGPP in assay buffer to test compound. Preincubate enzyme and ^3H-GGPP with test compound for 15 minutes at room temperature. Add 20 μL C. albicans Rho in assay buffer. Incubate for 30 minutes at room temperature. Final assay conditions are 2 nM C. albicans GGPTase, 250 nM ^3H-GGPP and 250 nM C. albicans Rho.
Add 100 μL 15 mM GGPP, 50 mM Tris, pH7.0 and 2% BSA to quench reaction. Transfer reaction to Nickel chelate FlashPlate. Allow his-tagged C. albcians Rho to capture onto plate. Rinse plate 1× with 200 μL 20 mM Tris, pH7.0. Read in TOPCOUNT.

In assay [2] the target is human GGTase (Homo sapiens, UniProt P53609). Description: Human GGTase inhibition (Hu GG). Format: biochemical. The source says: As described below, a variety of different compounds were synthesized and tested for inhibitory activity against human and Candida GGTase. Exemplary synthesis schemes for generating prenyltransferase inhibitors useful in the methods and compositions of the present invention are shown in FIGS. 1-56. Tables 1-5 provide Structure-Activity relationship (SAR) data for several different classes of prenyltransferase inhibitors.

The mark [3] stands for this setting: Table 1, read-out: IC50 (nM) Ca GG.
The mark [4] stands for this setting: Table 1 Peptide Analogs, read-out: IC50 (nM) Ca GG.
Setting [5] is: Table 1, read-out: IC50 (nM) Hu GG.
The mark [6] stands for this setting: Table 1 Peptide Analogs, read-out: IC50 (nM) Hu GG.
Setting [7] is: Table 3 Piperidine Analogs, read-out: IC50 (nM) Ca GG.
The mark [8] stands for this setting: Table 3 Piperidine Analogs, read-out: IC50 (nM) Hu GG.
Setting [9] is: Table 5, read-out: IC50 (nM) Candida.
Where [10] appears, read: Table 5, read-out: IC50 (nM) Human.
The mark [11] stands for this setting: read-out: IC50 (nM) Ca GG, Table 1.

Read-outs that look alike come from different tables or passages of the source. Peptide text beside a SMILES is read from it. Some results are limits rather than exact numbers.

The IC50 is the concentration at which inhibition is half-maximal. For `CC1(C(=O)NCc2ccccc2)CCN(C(=O)[C@@H](N)CS)CC1` [Compound 63], the figures for the IC50 in assay [1] and in assay [2] were under 500 nM and over 1000 nM, respectively.
In the same order, the values of `N[C@@H](CS)C(=O)N1CCC(C(=O)NCc2ccccc2)CC1` [Compound 59] are over 1000 nM and over 1000 nM.
For the compound `NC[C@H](NC(=O)[C@@H](N)CS)C(=O)N1CCC(Cc2ccccc2)CC1` [Compound 89f], the 50% inhibitory concentration (IC50) in assay [1] (setting [3]) is under 1000 nM; in assay [1] (setting [4]), under 1000 nM; in assay [2] (setting [5]), over 1000 nM; in assay [2] (setting [6]), over 1000 nM.
Turning to `CC(C)C[C@H](NC(=O)C1(c2ccccc2)CCN(C(=O)[C@@H](N)CS)CC1)C(=O)N[C@@H](C)C(=O)N[C@@H](C)C(=O)O` [Compound 99b] (HELM PEPTIDE1{C.[O=C(C1(c2ccccc2)CCN([*:1])CC1)[*:2]].L.A.A}$$$$V2.0), the values for the IC50 in assay [1] (setting [7]) and in assay [2] (setting [8]) were under 200 nM and over 500 nM, respectively.
Take `CCOC(=O)N1CCC(NC(=O)C2(c3ccccc3)CCN(C(=O)[C@@H](N)CS)CC2)CC1` [Compound 53l]: the half-maximal inhibitory concentration (IC50) in assay [1] (setting [7]) and in assay [2] (setting [8]) was over 1000 nM throughout.
`N[C@@H](CS)C(=O)N1CCC(C(=O)NC2CCCCC2)(c2ccccc2)CC1` [Compound 53s]: the IC50 in assay [1] (setting [7]) is under 500 nM; in assay [2] (setting [8]), over 1000 nM.
Take `N[C@@H](CS)C(=O)N1CCC(C(=O)NCCCCc2ccccc2)(c2ccccc2)CC1` [Compound 53aa]: the IC50 in assay [1] (setting [7]) is under 100 nM; in assay [2] (setting [8]), over 1000 nM.
For the compound `CC(C)C[C@H](NC(=O)[C@H](Cc1cccc2ccccc12)NC(=O)CCNC(=O)[C@@H](N)CS)C(=O)O` [Compound 5g] (HELM PEPTIDE1{C.[bAla].[O=C([C@H](Cc1cccc2ccccc12)N[*:1])[*:2]].L}$$$$V2.0), the concentration for half-maximal inhibition (IC50) in assay [1] (setting [3]) was under 1000 nM; in assay [1] (setting [4]) it was under 1000 nM; in assay [2] (setting [5]), under 500 nM; in assay [2] (setting [6]), under 500 nM.
For the compound `CC(C)C[C@@H](C(=O)O)N(C)C(=O)c1ccc(NC[C@@H](N)CS)cc1-c1ccccc1` [Compound 19], the IC50 in assay [1] (setting [9]) and in assay [2] (setting [10]) was under 10 nM throughout.
Regarding `N[C@@H](CS)C(=O)N1CCC(C(=O)NCCc2ccc(S(N)(=O)=O)cc2)(c2ccccc2)CC1` [Compound 53m], the IC50 in assay [1] (setting [7]) and in assay [2] (setting [8]) was over 1000 nM each time.
On to `CC(C)C[C@H](NC(=O)C1(c2ccccc2)CCN(C(=O)[C@@H](N)CS)CC1)C(=O)O` [Compound 53a], for which the concentration for half-maximal inhibition (IC50) in assay [1] (setting [7]) and in assay [2] (setting [8]) was under 100 nM in each case.
With `CC(C)C[C@@H](C(=O)O)N(C)C(=O)Cn1c(=O)n(C2CCN(C(=O)[C@@H](N)CS)CC2)c2ccccc21` [Compound 93], the half-maximal inhibitory concentration (IC50) in assay [1] (setting [7]) and in assay [2] (setting [8]) was over 1000 nM in each case.
Turning to `N[C@@H](CS)C(=O)N1CCC(Cc2ccccc2)(C(=O)NCc2ccccc2)CC1` [Compound 64], the 50% inhibitory concentration (IC50) in assay [1] is under 100 nM; in assay [2], over 1000 nM.
For `N[C@@H](CS)C(=O)N1CCC(C(=O)N(CCc2ccccc2)Cc2ccccc2)CC1` [Compound 62], the IC50 in assay [1] was under 200 nM; in assay [2], over 1000 nM.
With `NC[C@H](NC(=O)[C@@H](N)CS)C(=O)NCC(=O)Nc1ccc2ccccc2c1` [Compound 89e] (HELM PEPTIDE1{C.[NC[C@H](N[*:1])C(=O)[*:2]].G.[c1ccc2cc(N[*:1])ccc2c1]}$$$$V2.0), the concentration for half-maximal inhibition (IC50) in assay [1] (setting [3]), in assay [1] (setting [4]), in assay [2] (setting [5]) and in assay [2] (setting [6]) was over 1000 nM throughout.
Take `CC(C)C[C@H](NC(=O)[C@H](Cc1cccc2ccccc12)NC(=O)C[C@@H](NC(=O)[C@@H](N)CS)C(N)=O)C(=O)O` [Compound 5h] (HELM PEPTIDE1{[O=C([C@H](Cc1cccc2ccccc12)N[*:1])[*:2]].L}|PEPTIDE2{C.[dD].[am]}$PEPTIDE1,PEPTIDE2,1:R1-2:R3$$$V2.0): the half-inhibitory concentration (IC50) was under 1000 nM in assay [1] (setting [3]), under 1000 nM in assay [1] (setting [4]), under 500 nM in assay [2] (setting [5]) and under 500 nM in assay [2] (setting [6]).
As for `CC(C)C[C@H](NC(=O)[C@H](Cc1ccc2ccccc2c1)NC[C@@H](NC[C@@H](N)CS)C(C)C)C(=O)O` [Compound 9], the IC50 is under 1000 nM in assay [1] (setting [3]); under 1000 nM in assay [1] (setting [4]); under 1000 nM in assay [1] (setting [9]); under 100 nM in assay [2] (setting [5]); under 100 nM in assay [2] (setting [6]); under 100 nM in assay [2] (setting [10]).
As to `CC(C)C[C@H](NC(=O)[C@H](Cc1cccc2ccccc12)NC(=O)CNC(=O)[C@@H](N)CS)C(=O)O` [Compound 5i] (HELM PEPTIDE1{C.G.[O=C([C@H](Cc1cccc2ccccc12)N[*:1])[*:2]].L}$$$$V2.0), the IC50 in assay [1], in assay [2] (setting [5]) and in assay [2] (setting [6]) was under 500 nM throughout.
In the case of `N[C@@H](CS)C(=O)N1CCC(C(=O)N(Cc2ccccc2)Cc2ccccc2)CC1` [Compound 61], the 50% inhibitory concentration (IC50) in assay [1] and in assay [2] was over 1000 nM each time.
Turning to `CC(C)C[C@H](NC(=O)[C@H](Cc1cccc2ccccc12)NC(=O)[C@H](CN)NC(=O)[C@@H](N)CS)C(=O)O` [Compound 5b] (HELM PEPTIDE1{C.[NC[C@H](N[*:1])C(=O)[*:2]].[O=C([C@H](Cc1cccc2ccccc12)N[*:1])[*:2]].L}$$$$V2.0), the concentration for half-maximal inhibition (IC50) was under 10 nM in assay [1], under 10 nM in assay [1] (setting [11]), under 500 nM in assay [2] (setting [5]) and under 500 nM in assay [2] (setting [6]).
For `N[C@@H](CS)C(=O)N1CCC(C(=O)NCC2CCCO2)(c2ccccc2)CC1` (stereo partly drawn) [Compound 53t], the IC50 in assay [1] (setting [7]) is under 100 nM; in assay [2] (setting [8]), over 1000 nM.
For the compound `NC[C@H](NC(=O)[C@@H](N)CS)C(=O)NCc1ccc2c(c1)OCO2` [Compound 89d], the half-maximal inhibitory concentration (IC50) in assay [1] (setting [3]), in assay [1] (setting [4]), in assay [2] (setting [5]) and in assay [2] (setting [6]) was over 1000 nM throughout.
For the compound `CC(C)C[C@H](NC(=O)c1ccc(NC[C@@H](N)CS)cc1-c1ccccc1)C(=O)O` [Compound 17], the IC50 in assay [1] (setting [9]) and in assay [2] (setting [10]) was under 10 nM in each case.
With `CC(C)CCNC(=O)C1(c2ccccc2)CCN(C(=O)[C@@H](N)CS)CC1` [Compound 53c], the half-inhibitory concentration (IC50) in assay [1] (setting [7]) and in assay [2] (setting [8]) was under 100 nM in each case.
With `CC(C)/C=C1\NC(=O)N(C2(c3ccccc3)CCN(C(=O)C(N)CS)CC2)C1=O` (stereo not drawn) [Compound 70], the IC50 in assay [1] is under 50 nM; in assay [2], over 1000 nM.
As to `N[C@@H](CS)C(=O)N1CCC(C(=O)NCc2ccccc2-c2ccccc2)(c2ccccc2)CC1` [Compound 53b], the IC50 in assay [1] (setting [7]) was under 100 nM; in assay [2] (setting [8]), under 1000 nM.
For the compound `N[C@@H](CS)C(=O)N1CCC(C(=O)N(Cc2ccccc2)c2ccccc2)CC1` [Compound 60], the half-inhibitory concentration (IC50) in assay [1] and in assay [2] was over 1000 nM in each case.
As for `N[C@@H](CS)C(=O)N1CCC(C(=O)NCc2ccccc2)(c2ccccc2)CC1` [Compound 53bb], the values for the IC50 in assay [1] (setting [7]) and in assay [2] (setting [8]) were under 100 nM and over 1000 nM, respectively.
`N[C@@H](CS)C(=O)N1CCC(C(=O)NCCc2cccs2)(c2ccccc2)CC1` [Compound 53d]: the concentration for half-maximal inhibition (IC50) in assay [1] (setting [7]) is under 500 nM; in assay [2] (setting [8]), over 1000 nM.
Regarding `CC(C)C[C@H](NC(=O)[C@H](Cc1cccc2ccccc12)NC(=O)[C@H](CC(=O)O)NC(=O)[C@@H](N)CS)C(=O)O` [Compound 5d] (HELM PEPTIDE1{C.D.[O=C([C@H](Cc1cccc2ccccc12)N[*:1])[*:2]].L}$$$$V2.0), the IC50 in assay [1], in assay [1] (setting [11]), in assay [2] (setting [5]) and in assay [2] (setting [6]) was over 1000 nM each time.
Take `N[C@@H](CS)C(=O)N1CCC(C(=O)NCC(c2ccccc2)c2ccccc2)(c2ccccc2)CC1` [Compound 53y]: the values for the concentration for half-maximal inhibition (IC50) in assay [1] (setting [7]) and in assay [2] (setting [8]) were under 100 nM and under 500 nM, respectively.

Source of the values: patent US6423519B1, “Compositions and methods for inhibiting fungal growth” (GPC Biotech Inc., priority 1998, dated 2002).
